The values below come from patent publication US20230146675A1, “PYRIMIDO[5,4-d]PYRIMIDINE DERIVATIVES AS ENT INHIBITORS FOR THE TREATMENT OF CANCERS, AND COMBINATION THEREOF WITH ADENOSINE RECEPTOR ANTAGONISTS” (ITEOS BELGIUM SA, priority 2020, published 2023).

Data set [1] concerns stimulated primary human T cells. Put plainly: T cell proliferation assay (rescue of proliferation in presence of 100 uM ATP). The format is cell-based. As for the experimental part: Purpose. The aim of this study was to determine the potency of equilibrative nucleoside transporter 1 (ENT1) inhibitors to rescue proliferation by stimulated primary human T cells incubated in the presence of 100 uM Adenosine triphosphate (ATP) with: • Condition A: X-VIVO15 • Condition B: X-VIVO15, 2% Human Serum Albumine (HSA) and 0.1% α-1-Acid Glycoprotein (AAG)
Method. Cryopreserved purified human CD3+ T cells were thawed and washed twice with RPMI1640 medium, UltraGlutamine containing 10% hiFBS.
Cells were suspended in PBS containing 10% hiFBS. Cells were stained with CFSE by adding 2 μM solution in PBS, to get a final 1 μM CFSE solution. Cells were incubated while rotating for 5 minutes. Reaction was stopped by adding PBS with 10% FBS and cells were centrifuged for 5 minutes at 1500 rpm.
Cells were resuspended at 1.6×10^6 cells/mL, either in X-VIVO15 medium or in 4% Human Serum Albumin and 0.2% α-1-Acid Glycoprotein. 50 μL of cell suspension (8×10^4 T cells) was added to wells of sterile round-bottom 96-well plates. Cells were activated by adding 50 μL of anti-CD3 anti-CD28 coated microbeads, suspended either in XVIVO-15 medium or in 4% HSA and 0.2% α-1-Acid Glycoprotein, at a ratio of one microbead per two cells.
Serial dilutions of the ENT1 inhibitors were prepared in X-VIVO15 from 10 mM stock solutions in DMSO, and 50 μL was added to the wells.
ATP powder was diluted in X-VIVO15, and 50 μL of this compound was added to the wells to reach a final assay concentration of 100 μM. Final volume of 200 μL.
The experiments were also performed in 384 well plates—all volumes reduced by a factor of 4 ([…]) with a final volume of 50 μL.
Experiments were performed in duplicate. The cells were placed in a 37° C. humidified tissue culture incubator with 5% CO2 for 72 hours for 96 well plates, 96 hours for 384 well plates. After 72 or 96 hours, proliferation was measured determined by CFSE dilution via flow cytometry.
Results. Compounds of the invention have good ENT1 inhibitory properties.

The subject of another data set is human AAG protein. Description: AAG binding assay - dialysis assay. The settings on record: 2 μM, 37° C., 4-hr.
The target of data set [2] is T1, human ENT1 (Homo sapiens, UniProt Q99808).
T1 sequence (Q99808 1-456): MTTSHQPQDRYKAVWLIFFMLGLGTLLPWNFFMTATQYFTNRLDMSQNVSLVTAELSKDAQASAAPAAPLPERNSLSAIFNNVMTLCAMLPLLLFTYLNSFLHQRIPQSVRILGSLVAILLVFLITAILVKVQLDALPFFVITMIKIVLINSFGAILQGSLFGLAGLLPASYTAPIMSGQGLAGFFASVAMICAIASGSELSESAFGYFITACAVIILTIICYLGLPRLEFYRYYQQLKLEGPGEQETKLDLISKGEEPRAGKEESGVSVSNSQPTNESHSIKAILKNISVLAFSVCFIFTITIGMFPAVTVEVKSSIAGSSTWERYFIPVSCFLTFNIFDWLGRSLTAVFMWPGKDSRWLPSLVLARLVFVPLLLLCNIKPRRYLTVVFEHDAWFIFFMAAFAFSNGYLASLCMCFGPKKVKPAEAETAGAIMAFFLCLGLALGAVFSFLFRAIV
Description: ENT1 binding assay (competition with Sahenta-DY647 on JAR cells). Further details: JAR cells expressing ENT1 were bought from ATCC; host or cells: JAR cells. Particulars: binned IC50. In outline: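 JAR cells were incubated with test compounds and the fluorescent ligand Sahenta-DY647 in competition. Plates were washed twice by centrifugation (4 min, 400 rcf, 4 °C). Binding potency was derived from the final fluorescence.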

In data set [3] the target is T1, human ENT1. Put plainly: Uridine transport inhibition assay (3H-uridine uptake, MDCKII-ENT1-LV cells). Type of data set: cell-based. Particulars: 3H-uridine (1 μM), 1 min at 25° C. The source says: Purpose. The aim of this study was to determine the potency of equilibrative nucleoside transporter 1 (ENT1) inhibitors by measuring ENT1-mediated transport is the cellular uptake assay. The human ENT1 transporter can be stably expressed in Madin-Darby Canine Kidney II (MDCKII) cells via transduction. Uridine is efficiently transported by ENT1 and is used as probe in the assay as 3H-uridine. The interaction is detected as the modulation of the initial rate of 3H-uridine transport by human ENT1 into MDCKII-ENT1-LV cells stably expressing ENT1 uptake transporter.

Data set [4] deals with human alpha 1-acid glycoprotein (AAG). Put plainly: AAG binding assay - HPLC assay. The settings on record: for retention time (rt) on immobilized human AAG column: 100 μmol/L. On the procedure:
Purpose. […] The principle of the assay is a liquid chromatography on a human AAG protein immobilized onto a silica support for separations of compounds following their affinity to AAG protein. By measuring the retention time, the binding to AAG can be determined relatively to the references.
Method. […] Mobile Phase A: 50 mM Ammonium acetate in deionized water; Mobile Phase B: Isopropanol; Column Oven: 8° C.; PDA(nm): 230; Flow Rate (mL/min): 0.2. Test Concentration (μmol/L): 100 (from 10 mmol/L DMSO solution diluted 100 folds by 50 mM Ammonium acetate in deionized water: Isopropanol (1:1)). Generic Gradient: Time (min): 0.01; 5; 13; 14; 20.

Setting [5] is: Condition A: X-VIVO15, read-out: TCell proliferation (Condition A) IC50.
The mark [6] stands for this setting: Condition B: X-VIVO15, 2% HSA and 0.1% AAG, read-out: TCell proliferation (Condition B) IC50.

Structures are written as SMILES. pIC50: −log10 of the molar value. Like-named read-outs stand apart in the source and are kept apart here.

Description for human AAG protein: Purpose. The aim of this assay is to determine the binding of a compound of interest to the human AAG protein using the robust method of dialysis.
Material. […] The dialysis Buffer (100 mM Phosphate Buffered Saline, pH 7.4) has been prepared by dissolving 28.56 g Na2HPO4.12H2O (AR grade) and 3.12 g NaH2PO4.2H2O (AR grade) into a final volume of 1000 mL ultra pure water, mixed, and adjusted the resulting solution with 1% phosphoric acid or 1 M sodium hydroxide to pH 7.4±0.1. Stored the final solution in 2-8° C. refrigerator within an expiration of a month after preparation.
Method: The dialysis membrane is soaked in dialysis buffer at 4° C. overnight. The following day the membrane is separated into two strips and then soaked in ethanol: water (20:80 v:v) for 20 mins. Then the membrane was rinsed with ultra-pure water 3-4 times. Prepared 400 μM working solution by diluting the stock solution (10 mM) with appropriate volume of DMSO. 5 μL aliquots of each working solution were spiked into 1000 μL of blank protein (matrix) to achieve a 2 μM final concentration as loading solution. The plates of loading solution were mixed well. Aliquots of 150 μL of loading solution were loaded in triplicate to the donor side of each dialysis well and dialyzed against an equal volume of dialysis buffer. […]
The concentration was calculated using the peak area ratio of analyte and internal standard.

As for `COCCN(CCOC)c1nc(N2CCC(OC)CC2)c2nc(N(CCOC)CCOC)nc(N3CCC(OC)CC3)c2n1` [Compound 2, N2,N2,N6,N6-tetrakis(2-methoxyethyl)-4,8-bis(4-methoxypiperidin-1-yl)pyrimido[5,4-d]pyrimidine-2,6-diamine], the pIC50 in data set [1] (setting [5]) is 6.30 to 7.00; in data set [1] (setting [6]) it was 6.30 to 7.00; at human ENT1 [2], 6.30 to 7.00; on human ENT1 [3] it was more than 7.00. The “Human alpha-1-acid glycoprotein (AAG) (1 mg/mL) Unbound” value with human AAG protein came to 24.6% Unbound. In addition, the “retention time (rt) on immobilized human AAG column” value in data set [4] is reported as 5.2 min.

`COCCN(CCOC)c1nc(N2CCC(OC)CC2)c2nc(N(CCO)CCO)nc(N3CCC(OC)CC3)c2n1` [Compound 27, 2,2′-((6-(bis(2-methoxyethyl)amino)-4,8-bis(4-methoxypiperidin-1-yl)pyrimido[5,4-d]pyrimidin-2-yl)azanediyl)diethanol]: the “Human alpha-1-acid glycoprotein (AAG) (1 mg/mL) Unbound” value in the data set with human AAG protein is 89.4% Unbound. The compound also had a pIC50 on human ENT1 [2] of 6.00 to 6.30.

As to `CCCN(C)c1nc(N(CCOC)CCOC)nc2c(N3CCC(OC)CC3)nc(N(CCOC)CCOC)nc12` [Compound 68, N2,N2,N6,N6-tetrakis(2-methoxyethyl)-8-(4-methoxypiperidin-1-yl)-N4-methyl-N4-propylpyrimido[5,4-d]pyrimidine-2,4,6-triamine], the pIC50 is 6.00 to 6.30 in data set [1] (setting [5]), 6.00 to 6.30 in data set [1] (setting [6]), more than 7.00 at human ENT1 [2] and more than 7.00 on human ENT1 [3].

For `COCCN(CCOC)c1nc(N2CCC(OC)CC2)c2nc(N(CCOC)CCOC)nc(N(C)Cc3cccnc3)c2n1` [Compound 81, N2,N2,N6,N6-tetrakis(2-methoxyethyl)-8-(4-methoxypiperidin-1-yl)-N4-methyl-N4-(pyridin-3-ylmethyl)pyrimido[5,4-d]pyrimidine-2,4,6-triamine], the pIC50 in data set [1] (setting [5]) is 6.30 to 7.00; in data set [1] (setting [6]), 6.00 to 6.30; at human ENT1 [2], more than 7.00; at human ENT1 [3], more than 7.00.

`COCCN(CCOC)c1nc(N2CCCC3(COC3)C2)c2nc(N(CCOC)CCOC)nc(N3CCC(OC)CC3)c2n1` [Compound 97, N2,N2,N6,N6-tetrakis(2-methoxyethyl)-4-(4-methoxypiperidin-1-yl)-8-(2-oxa-6-azaspiro[3.5]nonan-6-yl)pyrimido[5,4-d]pyrimidine-2,6-diamine] gave a pIC50 at human ENT1 [2] of more than 7.00. Further, the “AAG HPLC” value in data set [4] (AAG binding by HPLC retention time (rt) on CHIRALPAK AGP column, binned) is “−− (rt below 6 min: −−)”.

As to `COCCN(CCOC)c1nc(N2CCC(OC)CC2)c2nc(N(CCOC)CCOC)nc(NCc3ccc(F)c(C#N)c3)c2n1` [Compound 149, 5-(((2,6-bis(bis(2-methoxyethyl)amino)-8-(4-methoxypiperidin-1-yl)pyrimido[5,4-d]pyrimidin-4-yl)amino)methyl)-2-fluorobenzonitrile], the pIC50 in data set [1] (setting [5]) is 6.30 to 7.00; in data set [1] (setting [6]) it was 6.30 to 7.00; on human ENT1 [2], more than 7.00; at human ENT1 [3], more than 7.00.

Regarding `COCCN(CCOC)c1nc(N2CCC(OC)CC2)c2nc(N(CCOC)CCOC)nc(N(C)Cc3cccc(OC)c3)c2n1` [Compound 171, N4-(3-methoxybenzyl)-N2,N2,N6,N6-tetrakis(2-methoxyethyl)-8-(4-methoxypiperidin-1-yl)-N4-methylpyrimido[5,4-d]pyrimidine-2,4,6-triamine], the pIC50 is 6.30 to 7.00 in data set [1] (setting [5]), 6.30 to 7.00 in data set [1] (setting [6]), more than 7.00 on human ENT1 [2] and more than 7.00 at human ENT1 [3].

As to `COCCN(CCOC)c1nc(N2CCC(OC)CC2)c2nc(N(CCOC)Cc3cc(OC)c(OC)c(OC)c3)nc(N3CCC(OC)CC3)c2n1` [Compound 184, N2,N2,N6-tris(2-methoxyethyl)-4,8-bis(4-methoxypiperidin-1-yl)-N6-(3,4,5-trimethoxybenzyl)pyrimido[5,4-d]pyrimidine-2,6-diamine], the pIC50 (in data set [1] (setting [5]); in data set [1] (setting [6]); on human ENT1 [2]; at human ENT1 [3]) was more than 7.00 throughout.

`COCCN(CCOC)c1nc(N2CCC(OC)CC2)c2nc(N(CCO)Cc3cc(OC)c(OC)c(OC)c3)nc(N3CCC(OC)CC3)c2n1` [Compound 186, 2-((6-(bis(2-methoxyethyl)amino)-4,8-bis(4-methoxypiperidin-1-yl)pyrimido[5,4-d]pyrimidin-2-yl)(3,4,5-trimethoxybenzyl)amino)ethanol]: the pIC50 was more than 7.00 in data set [1] (setting [5]), 6.30 to 7.00 in data set [1] (setting [6]), more than 7.00 on human ENT1 [2] and more than 7.00 against human ENT1 [3].

Take `CC(C)NCC(O)COc1cccc2ccccc12` (centres unmarked) [Propranolol, reference compound]: in data set [4], the “retention time (rt) on immobilized human AAG column” value is on record as 14.05 min.
